We go through one compound from the NIST ThermoML archive (doi:10.1016/j.jct.2017.01.007).

Several values for one entry are separate records, joined by “and”; a condition that tells them apart may be missing. Identical values can stand only once. Numbers after ± are expanded uncertainties.

For this data set the following is noted: Pendant drop shape.

Turning to `O` [water], the surface tension liquid-gas – broadly, the force per length acting along the surface – reads like this: (283.2 K) 74.8 ± 2.3 mN/m and 74.83 ± 2.1 mN/m; (288.2 K) 73.65 ± 2.3 mN/m and 73.67 ± 2.1 mN/m; (293.2 K) 73.07 ± 2.1 mN/m and 73.03 ± 2.1 mN/m; (298.2 K) 72.21 ± 2.2 mN/m and 72.13 ± 2.1 mN/m.
